Molecular target: T1, E. coli DNA gyrase GyrB (F513L) (Escherichia coli, UniProt P0AES6, F513L)
T1 construct: His6 tag followed by TEV site (X1: […]) (N, cleaved yes); made in house; host or cells: E. coli BL21(DE3) RIL
Test: Gel supercoiling assay, reconstituted GyrB (F513L) gyrase
Format: biochemical
Method: Conditions to measure the supercoiling of a relaxed, closed-circular plasmid substrate and cleavage complex stabilization in agarose gels were adapted from the literature and carried out as described below. Plasmid supercoiling reactions were assembled by combining 0.4 μL compound (in 100% DMSO), 12.5 μL H2O, 4 μL 5Xbuffer, 0.4 μL relaxed pUC19 DNA substrate (0.5 μg), […] dilute DNA gyrase (buffer, substrate, and enzyme from New England Biolabs, Beverly, MA). Alternatively the substrate pHOT-1 (TopoGEN, Buena Vista, CO) was used as noted (the substrate from New England Biolabs has been discontinued). P. aeruginosa DNA gyrase was supplied by Inspiralis, Norwich, UK. […] The gel was illuminated with UV light, photographed, and DNA quantitated with an Alpha Imager and accompanying software (ProteinSimple, San Jose, CA). […]
The E. coli gyrA and gyrB (wild-type and t1537c (F513L)) genes with a N-terminal His6 tag sequence followed by Tobacco Etch Virus (TEV) cleavage site ([…]) were cloned into pET28(+) vector (EMD Millipore). […] Fractions containing gyrase subunit protein (as monitored by sodium dodecyl sulfate polyacrylamide gel electrophoresis (SDS-PAGE)) were pooled and loaded onto a Q-Sepharose column (GE Healthcare, Princeton, NJ, USA) equilibrated in 20 mM Tris-HCl (pH = 7.9), 25mM NaCl, 10% glycerol, and 2 mM β-mercaptoethanol. […]

Compound: Cn1ncc2cc(-c3nnnn3C3CCN(C(=O)Nc4ccc(Cl)c(Cl)c4)CC3)ccc21 [MRL-1082]
- IC50: > 200 µM

Source: publication PMC5507300, “Antibacterial small molecules targeting the conserved TOPRIM domain of DNA gyrase” (PLoS ONE, 2017)
